# In patent US20100267561A1, “HERBICIDAL PYRIDAZINONE DERIVATIVES” (priority 2007, published 2010):
# Assays:
# Type in all cases: in vivo
# rice (Oryza sativa) = assay: Test B flooded paddy test plant response
# How it was run: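 Compounds were added directly to paddy water over 2-leaf-stage plants in pots flooded 3 cm above soil, water depth maintained. Visual injury scored against controls after 13 to 15 days in greenhouse, 0 (none) to 100 (complete control); dash indicates no result.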
# [1] = tested on: giant foxtail (Setaria faberii); assay: Test B pre-/postemergence plant response; details: for Foxtail, Giant plant response rating: 8 g ai/ha
# How it was run: (§1)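 Visual scoring from 0 (no effect) to 100 (complete control) against untreated controls was done 13 to 15 days after greenhouse treatment. Chemicals were formulated in a surfactant-containing non-phytotoxic solvent and applied to soil preemergence or to 1- to 4-leaf (2-18 cm) plants postemergence.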
# [2] = tested on: morningglory (Ipomoea coccinea); assay: Test B pre-/postemergence plant response; details: for Morningglory plant response rating: 8 g ai/ha
# How it was run: as §1
# [3] = tested on: velvetleaf (Abutilon theophrasti); assay: Test B pre-/postemergence plant response; details: for Velvetleaf plant response rating: 8 g ai/ha
# How it was run: as §1
# [4] = tested on: catchweed bedstraw (Galium aparine); assay: Test B pre-/postemergence plant response; details: Preemergence
# How it was run: as §1
# [5] = tested on: Italian ryegrass (Lolium multiflorum); assay: Test B pre-/postemergence plant response; details: for Ryegrass, Italian plant response rating: 8 g ai/ha
# How it was run: as §1
# kochia (Kochia scoparia) = assay: Test B pre-/postemergence plant response; details: for Kochia plant response rating: 8 g ai/ha
# How it was run: as §1
# [6] = tested on: johnsongrass (Sorghum halepense); assay: Test B pre-/postemergence plant response; details: for Johnsongrass plant response rating: 8 g ai/ha
# How it was run: as §1
# [7] = tested on: pigweed (Amaranthus retroflexus); assay: Test B pre-/postemergence plant response; details: for Pigweed plant response rating: 8 g ai/ha
# How it was run: as §1
# soybean (Glycine max) = assay: Test B pre-/postemergence plant response; details: for Soybean plant response rating: 8 g ai/ha
# How it was run: as §1
# [8] = tested on: lambsquarters (Chenopodium album); assay: Test B pre-/postemergence plant response; details: for Lambsquarters plant response rating: 8 g ai/ha
# How it was run: as §1
# [9] = tested on: bermudagrass (Cynodon dactylon); assay: Test B pre-/postemergence plant response; details: for Bermudagrass plant response rating: 8 g ai/ha
# How it was run: as §1
# [10] = tested on: goosegrass (Eleusine indica); assay: Test B pre-/postemergence plant response; details: for Goosegrass plant response rating: 8 g ai/ha
# How it was run: as §1
# [11] = tested on: large crabgrass (Digitaria sanguinalis); assay: Test B pre-/postemergence plant response; details: for Crabgrass, Large plant response rating: 8 g ai/ha
# How it was run: as §1
# [12] = Postemergence, 16 g ai/ha, scale 0 to 100
# [13] = Postemergence, 31 g ai/ha, scale 0 to 100, 0 no effect, 100 complete control
# [14] = Postemergence, 62 g ai/ha, scale 0 to 100, 0 no effect, 100 complete control
# [15] = Preemergence, 16 g ai/ha, scale 0 to 100 (0 no effect, 100 complete control)
# [16] = Preemergence, 31 g ai/ha, 0 to 100 scale, 0 no effect, 100 complete control
# [17] = Preemergence, 62 g ai/ha, scale 0 to 100
smiles,measurement,setting,value
Cc1cc(-c2ccc(Cl)cc2)nn1-c1c(OS(=O)(=O)c2ccccc2)cnn(C)c1=O [Compound 35],"Plant response rating, Rice","rice (Oryza sativa); Flood (flooded paddy test), 62 g ai/ha, scale 0 to 100, 0 no effect, 100 complete control",0
same,"Plant response rating, Rice","rice (Oryza sativa); Flood (flooded paddy test), 125 g ai/ha, scale 0 to 100, 0 no effect, 100 complete control",0
same,"Plant response rating, Rice","rice (Oryza sativa); Flood, 31 g ai/ha, scale 0 to 100",0
same,"Foxtail, Giant plant response rating","[1]; postemergence, 0-100 scale",90
same,"Plant response rating, Foxtail, Giant",[1]; [12],98
same,"Plant response rating, Foxtail, Giant",[1]; [13],100
same,"Plant response rating, Foxtail, Giant",[1]; [14],100
same,"Plant response rating, Foxtail, Giant",[1]; [15],100
same,"Plant response rating, Foxtail, Giant",[1]; [16],100
same,"Plant response rating, Foxtail, Giant",[1]; [17],100
same,"Foxtail, Giant plant response rating","[1]; Preemergence, scale 0 to 100",100
same,Morningglory plant response rating,"[2]; postemergence, 0-100 scale",0
same,"Plant response rating, Morningglory",[2]; [12],0
same,"Plant response rating, Morningglory",[2]; [13],0
same,"Plant response rating, Morningglory",[2]; [14],0
same,"Plant response rating, Morningglory",[2]; [15],0
same,"Plant response rating, Morningglory",[2]; [16],0
same,"Plant response rating, Morningglory",[2]; [17],10
same,Morningglory plant response rating,"[2]; Preemergence, scale 0 to 100",0
same,Velvetleaf plant response rating,"[3]; postemergence, 0-100 scale",0
same,"Plant response rating, Velvetleaf",[3]; [12],0
same,"Plant response rating, Velvetleaf",[3]; [14],0
same,"Plant response rating, Velvetleaf",[3]; [15],0
same,"Plant response rating, Velvetleaf",[3]; [16],0
same,"Plant response rating, Velvetleaf",[3]; [17],0
same,Velvetleaf plant response rating,"[3]; Preemergence, scale 0 to 100",0
same,"Plant response rating, Galium","[4]; 16 g ai/ha, scale 0 to 100 (0 no effect, 100 complete control)",0
same,"Plant response rating, Galium","[4]; 31 g ai/ha, 0 to 100 scale, 0 no effect, 100 complete control",0
same,"Plant response rating, Galium","[4]; 62 g ai/ha, scale 0 to 100",20
same,Galium plant response rating,"[4]; 8 g ai/ha, scale 0 to 100",0
same,"Ryegrass, Italian plant response rating","[5]; postemergence, 0-100 scale",40
same,"Plant response rating, Ryegrass, Italian",[5]; [12],40
same,"Plant response rating, Ryegrass, Italian",[5]; [13],90
same,"Plant response rating, Ryegrass, Italian",[5]; [14],98
same,"Plant response rating, Ryegrass, Italian",[5]; [15],100
same,"Plant response rating, Ryegrass, Italian",[5]; [16],100
same,"Plant response rating, Ryegrass, Italian",[5]; [17],100
same,"Ryegrass, Italian plant response rating","[5]; Preemergence, scale 0 to 100",100
same,Kochia plant response rating,"kochia (Kochia scoparia); postemergence, 0-100 scale",0
same,"Plant response rating, Kochia",kochia (Kochia scoparia); [12],0
same,"Plant response rating, Kochia",kochia (Kochia scoparia); [13],0
same,"Plant response rating, Kochia",kochia (Kochia scoparia); [14],0
same,"Plant response rating, Kochia",kochia (Kochia scoparia); [15],0
same,"Plant response rating, Kochia",kochia (Kochia scoparia); [16],0
same,Kochia plant response rating,"kochia (Kochia scoparia); Preemergence, scale 0 to 100",0
same,Johnsongrass plant response rating,"[6]; postemergence, 0-100 scale",0
same,"Plant response rating, Johnsongrass",[6]; [12],60
same,"Plant response rating, Johnsongrass",[6]; [13],95
same,"Plant response rating, Johnsongrass",[6]; [14],95
same,"Plant response rating, Johnsongrass",[6]; [15],80
same,"Plant response rating, Johnsongrass",[6]; [16],80
same,"Plant response rating, Johnsongrass",[6]; [17],80
same,Johnsongrass plant response rating,"[6]; Preemergence, scale 0 to 100",45
same,Pigweed plant response rating,"[7]; postemergence, 0-100 scale",0
same,"Plant response rating, Pigweed",[7]; [12],0
same,"Plant response rating, Pigweed",[7]; [13],0
same,"Plant response rating, Pigweed",[7]; [14],0
same,"Plant response rating, Pigweed",[7]; [15],0
same,"Plant response rating, Pigweed",[7]; [16],0
same,"Plant response rating, Pigweed",[7]; [17],0
same,Pigweed plant response rating,"[7]; Preemergence, scale 0 to 100",0
same,Soybean plant response rating,"soybean (Glycine max); postemergence, 0-100 scale",0
same,"Plant response rating, Soybean",soybean (Glycine max); [12],0
same,"Plant response rating, Soybean",soybean (Glycine max); [14],0
same,"Plant response rating, Soybean",soybean (Glycine max); [15],0
same,"Plant response rating, Soybean",soybean (Glycine max); [16],0
same,"Plant response rating, Soybean",soybean (Glycine max); [17],0
same,Soybean plant response rating,"soybean (Glycine max); Preemergence, scale 0 to 100",0
same,Lambsquarters plant response rating,"[8]; postemergence, 0-100 scale",0
same,"Plant response rating, Lambsquarters",[8]; [12],0
same,"Plant response rating, Lambsquarters",[8]; [13],0
same,"Plant response rating, Lambsquarters",[8]; [14],0
same,"Plant response rating, Lambsquarters",[8]; [15],0
same,"Plant response rating, Lambsquarters",[8]; [16],0
same,"Plant response rating, Lambsquarters",[8]; [17],0
same,Lambsquarters plant response rating,"[8]; Preemergence, scale 0 to 100",0
same,Bermudagrass plant response rating,"[9]; postemergence, 0-100 scale",40
same,"Plant response rating, Bermudagrass",[9]; [12],65
same,"Plant response rating, Bermudagrass",[9]; [13],100
same,"Plant response rating, Bermudagrass",[9]; [14],100
same,Bermudagrass plant response rating,"[9]; Preemergence, scale 0 to 100 (0 no effect, 100 complete control)",98
same,"Plant response rating, Bermudagrass",[9]; [15],98
same,"Plant response rating, Bermudagrass",[9]; [16],100
same,"Plant response rating, Bermudagrass",[9]; [17],100
same,Goosegrass plant response rating,"[10]; postemergence, 0-100 scale",20
same,"Plant response rating, Goosegrass",[10]; [12],40
same,"Plant response rating, Goosegrass",[10]; [13],70
same,"Plant response rating, Goosegrass",[10]; [14],75
same,"Plant response rating, Goosegrass",[10]; [15],100
same,"Plant response rating, Goosegrass",[10]; [16],100
same,"Plant response rating, Goosegrass",[10]; [17],100
same,Goosegrass plant response rating,"[10]; Preemergence, scale 0 to 100",80
same,"Crabgrass, Large plant response rating","[11]; postemergence, 0-100 scale",60
same,"Plant response rating, Crabgrass, Large",[11]; [12],70
same,"Plant response rating, Crabgrass, Large",[11]; [13],80
same,"Plant response rating, Crabgrass, Large",[11]; [14],100
same,"Plant response rating, Crabgrass, Large",[11]; [15],100
same,"Plant response rating, Crabgrass, Large",[11]; [16],100
same,"Plant response rating, Crabgrass, Large",[11]; [17],100
same,"Crabgrass, Large plant response rating","[11]; Preemergence, scale 0 to 100",90
